Reference: ChEMBL document CHEMBL4765241, “Identification and Preclinical Pharmacology of ((1 R,3 S)-1-Amino-3-(( S)-6-(2-methoxyphenethyl)-5,6,7,8-tetrahydronaphthalen-2-yl)cyclopentyl)methanol (BMS-986166): A Differentiated Sphingosine-1-phosphate Receptor 1 (S1P) Modulator Advanced into Clinical Trials” (J Med Chem, 2019)

Legend:
[1] = Ratio of drug metabolism in Lewis rat blood assessed as phosphate ester metabolite to parent drug at 2 mg/kg, po measured at 24 hrs by LC-MS/MS analysis; assay type: ADME, organism-based; conditions: in vivo
[2] = Pulmonary toxicity in Lewis rat assessed as elevation of BAL protein level at 25 mg/kg by advia1800 chemistry analyzer; assay type: organism-based; conditions: in vivo
Rattus norvegicus [3] = test: Drug metabolism in Lewis rat blood assessed as concentration of phosphate ester metabolite formation at 2 mg/kg, po measured at 4 hrs by LC-MS/MS analysis; conditions: in vivo
[4] = Drug metabolism in Lewis rat blood assessed as concentration of parent compound at 2 mg/kg, po measured at 4 hrs by LC-MS/MS analysis; assay type: ADME, organism-based; conditions: read-out: Ct
Rattus norvegicus [5] = test: Reduction in circulating lymphocytes in Lewis rat blood assessed as effective dose after oral dosing measured at 24 hrs by hematology analyzer based analysis; assay type: functional
[6] = Half-life in Lewis rat at 2 mg/kg, po measured over 72 hrs by LC-MS/MS analysis; assay type: ADME, organism-based; conditions: in vivo
Rattus norvegicus [7] = test: Reduction in circulating lymphocytes in Lewis rat blood at 2 mg/kg, po measured at 4 hrs by hematology analyzer based analysis; assay type: functional; set-up: scale not given: the % may be the effect or the level left
Rattus norvegicus [8] = test: Reduction in circulating lymphocytes in Lewis rat blood at 2 mg/kg, po measured at 24 hrs by hematology analyzer based analysis; assay type: functional; set-up: scale not given: the % may be the effect or the level left
[9] = Drug metabolism in Lewis rat blood assessed as concentration of parent compound at 2 mg/kg, po measured at 24 hrs by LC-MS/MS analysis; assay type: ADME, organism-based; conditions: read-out: Ct
[10] = Drug metabolism in Balb/c mouse blood assessed as concentration of parent compound at 15 mg/kg, po measured at 24 hrs by LC-MS/MS analysis; assay type: ADME, organism-based; conditions: read-out: Ct
Mus musculus [11] = test: Reduction in circulating lymphocytes in Balb/c mouse blood at 15 mg/kg, po measured at 4 hrs by hematology analyzer based analysis; assay type: functional; set-up: scale not given: the % may be the effect or the level left
[12] = Drug metabolism in Balb/c mouse blood assessed as concentration of phosphate ester metabolite formation at 15 mg/kg, po measured at 4 hrs by LC-MS/MS analysis; assay type: ADME, organism-based; conditions: in vivo
[13] = Ratio of drug metabolism in Balb/c mouse blood assessed as phosphate ester metabolite to parent drug at 1 mg/kg, po measured at 24 hrs by LC-MS/MS analysis; assay type: ADME, organism-based; conditions: in vivo
[14] = Drug metabolism in Balb/c mouse blood assessed as concentration of parent compound at 15 mg/kg, po measured at 4 hrs by LC-MS/MS analysis; assay type: ADME, organism-based; conditions: read-out: Ct
Mus musculus [15] = test: Reduction in circulating lymphocytes in Balb/c mouse blood at 15 mg/kg, po measured at 24 hrs by hematology analyzer based analysis; assay type: functional; set-up: scale not given: the % may be the effect or the level left
[16] = Drug metabolism in Balb/c mouse blood assessed as concentration of phosphate ester metabolite formation at 15 mg/kg, po measured at 24 hrs by LC-MS/MS analysis; assay type: ADME, organism-based; conditions: in vivo
Mus musculus [17] = test: Reduction in circulating lymphocytes in Balb/c mouse blood at 1 mg/kg, po measured at 4 hrs by hematology analyzer based analysis; assay type: functional; set-up: scale not given: the % may be the effect or the level left
[18] = Drug metabolism in Balb/c mouse blood assessed as concentration of phosphate ester metabolite formation at 1 mg/kg, po measured at 4 hrs by LC-MS/MS analysis; assay type: ADME, organism-based; conditions: in vivo, BLD = below limit of detection
[19] = Drug metabolism in Balb/c mouse blood assessed as concentration of parent compound at 1 mg/kg, po measured at 24 hrs by LC-MS/MS analysis; assay type: ADME, organism-based; conditions: Balb/c, blood, read-out: Ct
Mus musculus [20] = test: Reduction in circulating lymphocytes in Balb/c mouse blood at 1 mg/kg, po measured at 24 hrs by hematology analyzer based analysis; assay type: functional; set-up: scale not given: the % may be the effect or the level left
[21] = Drug metabolism in Balb/c mouse blood assessed as concentration of parent compound at 1 mg/kg, po measured at 4 hrs by LC-MS/MS analysis; assay type: ADME, organism-based; conditions: Balb/c, blood, read-out: Ct
[22] = Drug metabolism in Balb/c mouse blood assessed as concentration of phosphate ester metabolite formation at 1 mg/kg, po measured at 24 hrs by LC-MS/MS analysis; assay type: ADME, organism-based; conditions: in vivo
[23] = Ratio of drug metabolism in Balb/c mouse blood assessed as phosphate ester metabolite to parent drug at 15 mg/kg, po measured at 24 hrs by LC-MS/MS analysis; assay type: ADME, organism-based; conditions: in vivo

SMILES: COc1ccc(CC[C@@H]2CCc3cc([C@H]4CC[C@](N)(CO)C4)ccc3C2)cc1
- Ratio [1]: 0.4
- Activity [2]: 26 mg/dL
- Drug metabolism (Rattus norvegicus [3]): 10 nM
- concentration at 4 h [4]: 190 nM
- ED50 (Rattus norvegicus [5]): 0.5 mg/kg
- half-life [6]: 11 h
- Activity (Rattus norvegicus [7]): 21%
- Activity (Rattus norvegicus [8]): 81%
- concentration at 24 h [9]: 40 nM

SMILES: N[C@]1(CO)CC[C@H](c2ccc3c(c2)CC[C@@H](CCc2ccccc2)C3)C1
- concentration at 24 h [10]: 160 nM
- Ratio [1]: 6
- Activity (Mus musculus [11]): 81%
- Drug metabolism [12]: 110 nM
- Ratio [13]: 2.8
- concentration at 4 h [14]: 150 nM
- Activity (Mus musculus [15]): 88%
- Drug metabolism [16]: 360 nM
- Drug metabolism (Rattus norvegicus [3]): 150 nM
- Activity (Mus musculus [17]): 10%
- concentration at 4 h [4]: 130 nM
- Drug metabolism [18]: Bld
- concentration at 24 h [19]: 12 nM
- Activity (Mus musculus [20]): 52%
- half-life [6]: > 75 h
- concentration at 4 h [21]: 13 nM
- Activity (Rattus norvegicus [7]): 43%
- Activity (Rattus norvegicus [8]): 82%
- Drug metabolism [22]: 34 nM
- concentration at 24 h [9]: 140 nM
- Ratio [23]: 2.3
